Experiments:
Assay in all cases: UV-Vis absorption titration (Kb) and tryptophan fluorescence quenching (KSV […])
Assay type in all cases: binding
[1] = molecular target: T1, human serum albumin (HSA) (Homo sapiens, UniProt P02768)
T1 construct: gene ALB

[2] = molecular target: T1, human serum albumin (HSA); remark: listed apart in the source
[3] = molecular target: T1, human serum albumin (HSA); remark: listed apart in the source

T1 sequence (P02768 25-609): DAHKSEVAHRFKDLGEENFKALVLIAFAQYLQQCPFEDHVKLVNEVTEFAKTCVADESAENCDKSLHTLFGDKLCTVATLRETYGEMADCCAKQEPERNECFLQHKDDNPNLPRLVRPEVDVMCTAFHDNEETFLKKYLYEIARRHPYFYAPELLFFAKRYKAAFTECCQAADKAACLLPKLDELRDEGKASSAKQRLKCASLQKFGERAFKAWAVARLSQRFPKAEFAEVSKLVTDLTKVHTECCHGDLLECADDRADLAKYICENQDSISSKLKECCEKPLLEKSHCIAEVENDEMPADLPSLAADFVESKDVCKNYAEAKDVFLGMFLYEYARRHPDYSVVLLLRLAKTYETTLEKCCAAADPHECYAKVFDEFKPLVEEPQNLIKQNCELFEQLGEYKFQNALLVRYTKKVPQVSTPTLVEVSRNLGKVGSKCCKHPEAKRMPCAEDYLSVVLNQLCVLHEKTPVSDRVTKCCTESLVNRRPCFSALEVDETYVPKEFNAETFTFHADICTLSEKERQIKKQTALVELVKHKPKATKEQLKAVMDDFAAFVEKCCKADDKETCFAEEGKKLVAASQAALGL

## [(UO2)(OAc)2(MP)]
[1]
  UV-Vis absorption titration (Kb) and tryptophan fluorescence quenching (KSV 9.75): 2.26×10^5

## [(UO2)(OAc)2(CMZ)]
[2]
  UV-Vis absorption titration (Kb) and tryptophan fluorescence quenching (KSV 7.2×): 2.10×10^5

## [(UO2)(OAc)2(SCZ)]
[3]
  UV-Vis absorption titration (Kb) and tryptophan fluorescence quenching (KSV 9.46): 7×10^4
